In the NIST ThermoML archive (doi:10.1021/acs.jced.8b00217):
± gives the expanded uncertainty stated by the source.

Assays:
[1] = refractive index (Na D-line) (dimensionless); xn = mol fraction of the nth substance listed; details: 298.15 K, 101.3 kPa, Liquid, Standard Abbe refractometry
[2] = relative permittivity at various frequencies (dimensionless); xn = mol fraction of the nth substance listed; details: 298.15 K, 101.3 kPa, Liquid, Frequency=0.01 MHz, Coaxial cylinder capacitor
[3] = xn = mol fraction of the nth substance listed; details: 298.15 K, 101.3 kPa, Liquid, Vibrating tube method
[4] = 298.15 K; 101.3 kPa; Liquid; Vibrating tube method
[5] = refractive index (Na D-line) (dimensionless); details: 298.15 K; 101.3 kPa; Liquid; Standard Abbe refractometry
[6] = relative permittivity at various frequencies (dimensionless); details: 298.15 K; 101.3 kPa; Liquid; Frequency=0.01 MHz; Coaxial cylinder capacitor

O=C1CCCC1 [cyclopentanone] + CCCCCCO
refractive index ([1]; x1 = 0.1): 1.4175 ± 0.0011
refractive index ([1]; x1 = 0.2): 1.4189 ± 0.0011
refractive index ([1]; x1 = 0.3): 1.4204 ± 0.0011
refractive index ([1]; x1 = 0.4): 1.4221 ± 0.0011
refractive index ([1]; x1 = 0.5): 1.4239 ± 0.0011
refractive index ([1]; x1 = 0.6): 1.4258 ± 0.0011
refractive index ([1]; x1 = 0.7): 1.4279 ± 0.0011
refractive index ([1]; x1 = 0.8): 1.4301 ± 0.0011
refractive index ([1]; x1 = 0.9): 1.4324 ± 0.0011
refractive index ([1]; x1 = 1): 1.4347 ± 0.0011
relative permittivity ([2]; x1 = 0.1): 12.44 ± 0.61
relative permittivity ([2]; x1 = 0.2): 12 ± 0.6
relative permittivity ([2]; x1 = 0.3): 11.68 ± 0.59
relative permittivity ([2]; x1 = 0.4): 11.51 ± 0.59
relative permittivity ([2]; x1 = 0.5): 11.48 ± 0.59
relative permittivity ([2]; x1 = 0.6): 11.59 ± 0.59
relative permittivity ([2]; x1 = 0.7): 11.87 ± 0.59
relative permittivity ([2]; x1 = 0.8): 12.27 ± 0.6
relative permittivity ([2]; x1 = 0.9): 12.83 ± 0.62
relative permittivity ([2]; x1 = 1): 13.52 ± 0.63
mass density ([3]; x1 = 0.1): 823.87 ± 1.1 kg/m3
mass density ([3]; x1 = 0.2): 832.61 ± 1.1 kg/m3
mass density ([3]; x1 = 0.3): 842.44 ± 1.1 kg/m3
mass density ([3]; x1 = 0.4): 853.65 ± 1.1 kg/m3
mass density ([3]; x1 = 0.5): 866.02 ± 1.1 kg/m3
mass density ([3]; x1 = 0.6): 879.48 ± 1.1 kg/m3
mass density ([3]; x1 = 0.7): 894.17 ± 1.1 kg/m3
mass density ([3]; x1 = 0.8): 909.92 ± 1.1 kg/m3
mass density ([3]; x1 = 0.9): 926.64 ± 1.1 kg/m3
mass density ([3]; x1 = 1): 944.31 ± 1 kg/m3

O=C1CCCC1 [cyclopentanone] + CCCCO
refractive index ([1]; x1 = 0.1): 1.4015 ± 0.0011
refractive index ([1]; x1 = 0.2): 1.4057 ± 0.0011
refractive index ([1]; x1 = 0.3): 1.4098 ± 0.0011
refractive index ([1]; x1 = 0.4): 1.4137 ± 0.0011
refractive index ([1]; x1 = 0.5): 1.4175 ± 0.0011
refractive index ([1]; x1 = 0.6): 1.4212 ± 0.0011
refractive index ([1]; x1 = 0.7): 1.4248 ± 0.0011
refractive index ([1]; x1 = 0.8): 1.4282 ± 0.0011
refractive index ([1]; x1 = 0.9): 1.4315 ± 0.0011
refractive index ([1]; x1 = 1): 1.4347 ± 0.0011
relative permittivity ([2]; x1 = 0.1): 16.31 ± 0.69
relative permittivity ([2]; x1 = 0.2): 15.37 ± 0.67
relative permittivity ([2]; x1 = 0.3): 14.58 ± 0.65
relative permittivity ([2]; x1 = 0.4): 13.97 ± 0.64
relative permittivity ([2]; x1 = 0.5): 13.5 ± 0.6
relative permittivity ([2]; x1 = 0.6): 13.18 ± 0.62
relative permittivity ([2]; x1 = 0.7): 13.03 ± 0.62
relative permittivity ([2]; x1 = 0.8): 13.04 ± 0.62
relative permittivity ([2]; x1 = 0.9): 13.19 ± 0.62
relative permittivity ([2]; x1 = 1): 13.52 ± 0.63
mass density ([3]; x1 = 0.1): 820.75 ± 1.1 kg/m3
mass density ([3]; x1 = 0.2): 835.31 ± 1.1 kg/m3
mass density ([3]; x1 = 0.3): 849.88 ± 1.1 kg/m3
mass density ([3]; x1 = 0.4): 864.47 ± 1.1 kg/m3
mass density ([3]; x1 = 0.5): 878.88 ± 1.1 kg/m3
mass density ([3]; x1 = 0.6): 893.05 ± 1.1 kg/m3
mass density ([3]; x1 = 0.7): 906.81 ± 1.1 kg/m3
mass density ([3]; x1 = 0.8): 920.01 ± 1.1 kg/m3
mass density ([3]; x1 = 0.9): 932.67 ± 1.1 kg/m3
mass density ([3]; x1 = 1): 944.31 ± 1 kg/m3

O=C1CCCC1 [cyclopentanone] + CCO
refractive index ([1]; x1 = 0.1): 1.3696 ± 0.0011
refractive index ([1]; x1 = 0.2): 1.3793 ± 0.0011
refractive index ([1]; x1 = 0.3): 1.3884 ± 0.0011
refractive index ([1]; x1 = 0.4): 1.3968 ± 0.0011
refractive index ([1]; x1 = 0.5): 1.4046 ± 0.0011
refractive index ([1]; x1 = 0.6): 1.4117 ± 0.0011
refractive index ([1]; x1 = 0.7): 1.4182 ± 0.0011
refractive index ([1]; x1 = 0.8): 1.4242 ± 0.0011
refractive index ([1]; x1 = 0.9): 1.4296 ± 0.0011
refractive index ([1]; x1 = 1): 1.4347 ± 0.0011
relative permittivity ([2]; x1 = 0.1): 22.42 ± 0.8
relative permittivity ([2]; x1 = 0.2): 20.69 ± 0.77
relative permittivity ([2]; x1 = 0.3): 19.16 ± 0.75
relative permittivity ([2]; x1 = 0.4): 17.78 ± 0.72
relative permittivity ([2]; x1 = 0.5): 16.6 ± 0.7
relative permittivity ([2]; x1 = 0.6): 15.59 ± 0.68
relative permittivity ([2]; x1 = 0.7): 14.77 ± 0.66
relative permittivity ([2]; x1 = 0.8): 14.16 ± 0.65
relative permittivity ([2]; x1 = 0.9): 13.75 ± 0.64
relative permittivity ([2]; x1 = 1): 13.52 ± 0.63
mass density ([3]; x1 = 0.1): 811.02 ± 1.1 kg/m3
mass density ([3]; x1 = 0.2): 833.48 ± 1.1 kg/m3
mass density ([3]; x1 = 0.3): 853.69 ± 1.1 kg/m3
mass density ([3]; x1 = 0.4): 871.79 ± 1.1 kg/m3
mass density ([3]; x1 = 0.5): 888.17 ± 1.1 kg/m3
mass density ([3]; x1 = 0.6): 902.91 ± 1.1 kg/m3
mass density ([3]; x1 = 0.7): 915.99 ± 1 kg/m3
mass density ([3]; x1 = 0.8): 927.18 ± 1 kg/m3
mass density ([3]; x1 = 0.9): 936.58 ± 1 kg/m3
mass density ([3]; x1 = 1): 944.31 ± 1 kg/m3

CCCCCCCCCCO [decan-1-ol]
mass density [4]: 826.71 ± 1 kg/m3
refractive index [5]: 1.4352 ± 0.0011
relative permittivity [6]: 7.74 ± 0.49

CCCCCCCCCCO [decan-1-ol] + O=C1CCCC1
refractive index ([1]; x2 = 0): 1.4352 ± 0.0011
relative permittivity ([2]; x2 = 0): 7.74 ± 0.49
mass density ([3]; x2 = 0): 826.71 ± 1 kg/m3

CCO [ethanol]
mass density [4]: 785.26 ± 1 kg/m3
refractive index [5]: 1.3594 ± 0.001
relative permittivity [6]: 24.37 ± 0.84

CCO [ethanol] + O=C1CCCC1
refractive index ([1]; x2 = 0): 1.3594 ± 0.001
relative permittivity ([2]; x2 = 0): 24.37 ± 0.84
mass density ([3]; x2 = 0): 785.26 ± 1 kg/m3

CCCCCCO [hexan-1-ol]
mass density [4]: 815.99 ± 1.2 kg/m3
refractive index [5]: 1.4161 ± 0.0011
relative permittivity [6]: 13.09 ± 0.62

CCCCCCO [hexan-1-ol] + O=C1CCCC1
refractive index ([1]; x2 = 0): 1.4161 ± 0.0011
relative permittivity ([2]; x2 = 0): 13.09 ± 0.62
mass density ([3]; x2 = 0): 815.99 ± 1.2 kg/m3

CCCCCCCCO [octan-1-ol]
mass density [4]: 821.98 ± 1 kg/m3
refractive index [5]: 1.4276 ± 0.0011
relative permittivity [6]: 9.85 ± 0.55

CCCCCCCCO [octan-1-ol] + O=C1CCCC1
refractive index ([1]; x2 = 0): 1.4276 ± 0.0011
relative permittivity ([2]; x2 = 0): 9.85 ± 0.55
mass density ([3]; x2 = 0): 821.98 ± 1 kg/m3
